Source: US20240150325A1, “NOVEL COMPOUND AS PROTEIN KINASE INHIBITORS” (LG CHEM, LTD., priority 2021, published 2024)

What was measured:
RON = RON (Homo sapiens, UniProt Q04912); experiment: Evaluation of inhibitory activity to RON; type: biochemical
Source text: (§1) Experimental Example 1. Evaluation of Inhibitory Activity to RON and MET

MET = MET (Homo sapiens, UniProt P08581); experiment: Evaluation of inhibitory activity to MET; type: biochemical
Source text: as §1

Sequence of MET (P08581 25-1390): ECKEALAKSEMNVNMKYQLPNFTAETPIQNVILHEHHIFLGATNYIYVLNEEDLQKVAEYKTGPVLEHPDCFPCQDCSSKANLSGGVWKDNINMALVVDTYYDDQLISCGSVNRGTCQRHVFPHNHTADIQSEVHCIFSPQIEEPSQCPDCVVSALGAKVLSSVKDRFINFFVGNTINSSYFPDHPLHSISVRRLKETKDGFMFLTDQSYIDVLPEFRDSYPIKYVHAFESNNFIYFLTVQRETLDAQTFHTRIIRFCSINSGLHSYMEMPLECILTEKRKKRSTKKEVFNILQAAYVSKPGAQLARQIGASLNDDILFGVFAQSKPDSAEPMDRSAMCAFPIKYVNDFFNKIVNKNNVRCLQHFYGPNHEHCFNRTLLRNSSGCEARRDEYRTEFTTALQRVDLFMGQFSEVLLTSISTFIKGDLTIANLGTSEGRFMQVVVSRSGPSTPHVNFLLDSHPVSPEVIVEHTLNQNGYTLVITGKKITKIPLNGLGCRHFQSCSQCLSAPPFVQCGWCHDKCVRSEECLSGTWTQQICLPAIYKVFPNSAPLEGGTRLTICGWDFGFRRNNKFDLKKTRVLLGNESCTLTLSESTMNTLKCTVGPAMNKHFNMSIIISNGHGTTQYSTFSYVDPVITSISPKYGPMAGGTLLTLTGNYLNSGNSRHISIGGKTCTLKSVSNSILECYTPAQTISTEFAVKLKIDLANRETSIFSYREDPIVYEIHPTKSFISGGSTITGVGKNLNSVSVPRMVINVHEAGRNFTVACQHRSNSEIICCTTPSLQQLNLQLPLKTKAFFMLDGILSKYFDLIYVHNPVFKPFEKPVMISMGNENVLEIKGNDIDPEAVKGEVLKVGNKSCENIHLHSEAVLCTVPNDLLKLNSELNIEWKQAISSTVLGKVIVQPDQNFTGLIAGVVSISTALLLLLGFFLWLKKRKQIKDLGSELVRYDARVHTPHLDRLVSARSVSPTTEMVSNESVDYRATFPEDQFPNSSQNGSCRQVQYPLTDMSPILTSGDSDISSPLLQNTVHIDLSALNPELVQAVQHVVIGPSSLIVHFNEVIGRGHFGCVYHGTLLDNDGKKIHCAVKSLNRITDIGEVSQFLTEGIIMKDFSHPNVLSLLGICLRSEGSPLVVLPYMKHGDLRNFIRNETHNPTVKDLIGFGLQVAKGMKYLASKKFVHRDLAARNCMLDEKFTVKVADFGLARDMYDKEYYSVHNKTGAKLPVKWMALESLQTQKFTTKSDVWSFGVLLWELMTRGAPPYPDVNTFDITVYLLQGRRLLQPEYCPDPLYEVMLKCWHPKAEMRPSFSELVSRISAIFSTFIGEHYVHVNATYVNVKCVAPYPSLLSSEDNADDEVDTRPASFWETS
Sequence of RON (Q04912 25-1400): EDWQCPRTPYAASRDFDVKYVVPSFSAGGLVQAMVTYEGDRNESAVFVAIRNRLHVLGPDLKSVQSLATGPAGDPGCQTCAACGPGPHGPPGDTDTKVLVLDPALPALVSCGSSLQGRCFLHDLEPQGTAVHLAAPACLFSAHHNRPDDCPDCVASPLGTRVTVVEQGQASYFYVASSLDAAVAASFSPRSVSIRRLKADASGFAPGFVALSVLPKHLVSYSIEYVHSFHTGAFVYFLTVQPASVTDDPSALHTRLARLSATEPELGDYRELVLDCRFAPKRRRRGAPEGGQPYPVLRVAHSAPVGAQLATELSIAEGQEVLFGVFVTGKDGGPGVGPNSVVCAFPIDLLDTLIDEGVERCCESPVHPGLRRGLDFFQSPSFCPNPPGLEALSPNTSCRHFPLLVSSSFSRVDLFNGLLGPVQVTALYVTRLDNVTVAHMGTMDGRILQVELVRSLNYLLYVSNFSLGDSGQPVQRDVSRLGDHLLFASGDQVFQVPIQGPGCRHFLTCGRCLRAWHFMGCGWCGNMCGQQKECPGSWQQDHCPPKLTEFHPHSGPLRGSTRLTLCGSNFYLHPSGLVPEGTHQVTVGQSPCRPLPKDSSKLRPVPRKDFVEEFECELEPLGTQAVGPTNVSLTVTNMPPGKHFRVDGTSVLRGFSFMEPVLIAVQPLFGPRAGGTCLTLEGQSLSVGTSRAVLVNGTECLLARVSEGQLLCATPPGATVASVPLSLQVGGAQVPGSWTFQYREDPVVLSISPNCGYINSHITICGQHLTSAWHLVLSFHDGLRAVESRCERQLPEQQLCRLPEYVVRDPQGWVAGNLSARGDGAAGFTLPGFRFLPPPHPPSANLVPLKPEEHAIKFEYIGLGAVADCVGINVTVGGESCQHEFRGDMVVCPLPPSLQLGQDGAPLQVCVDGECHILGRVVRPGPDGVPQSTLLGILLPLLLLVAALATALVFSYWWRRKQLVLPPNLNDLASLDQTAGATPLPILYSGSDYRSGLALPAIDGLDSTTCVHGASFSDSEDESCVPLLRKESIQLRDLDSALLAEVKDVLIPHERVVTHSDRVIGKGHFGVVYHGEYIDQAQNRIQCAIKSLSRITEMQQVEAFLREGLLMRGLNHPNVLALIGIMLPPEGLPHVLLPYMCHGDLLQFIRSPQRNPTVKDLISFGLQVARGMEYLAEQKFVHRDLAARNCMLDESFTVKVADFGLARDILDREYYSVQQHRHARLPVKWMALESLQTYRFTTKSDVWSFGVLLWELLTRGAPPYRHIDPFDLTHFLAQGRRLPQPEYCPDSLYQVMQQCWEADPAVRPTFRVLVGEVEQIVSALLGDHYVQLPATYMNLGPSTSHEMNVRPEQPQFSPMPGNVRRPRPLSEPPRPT

IC50 (RON): 0.241 µM | IC50 (MET): 0.054 µM
Compound: Nc1nccc(-c2cc(Oc3ccc(NC(=O)c4cccn(-c5ccc(F)cc5)c4=O)cc3F)ccc2O)n1 [Example 46, N-(4-(3-(2-aminopyrimidin-4-yl)-4-hydroxyphenoxy)-3-fluorophenyl)-1-(4-fluorophenyl)-2-oxo-1,2-dihydropyridin-3-carboxamide]
